This note sets out measurements from ChEMBL document CHEMBL4414631 (J Med Chem, 2019).

A value given as a limit tells only on which side of the number the result lay.

Series [1] is described as follows: Lipophilicity, logD of compound at pH 7.4 by HPLC-MS analysis. Particulars: buffer.
The nature of series [2]: Solubility of compound by CLND method. The series is classed as physicochemical.
Series [3] has as its target T1, Phosphatidylinositol 4,5-bisphosphate 3-kinase catalytic subunit delta isoform (Homo sapiens, UniProt O00329).
T1 sequence (O00329 whole entry): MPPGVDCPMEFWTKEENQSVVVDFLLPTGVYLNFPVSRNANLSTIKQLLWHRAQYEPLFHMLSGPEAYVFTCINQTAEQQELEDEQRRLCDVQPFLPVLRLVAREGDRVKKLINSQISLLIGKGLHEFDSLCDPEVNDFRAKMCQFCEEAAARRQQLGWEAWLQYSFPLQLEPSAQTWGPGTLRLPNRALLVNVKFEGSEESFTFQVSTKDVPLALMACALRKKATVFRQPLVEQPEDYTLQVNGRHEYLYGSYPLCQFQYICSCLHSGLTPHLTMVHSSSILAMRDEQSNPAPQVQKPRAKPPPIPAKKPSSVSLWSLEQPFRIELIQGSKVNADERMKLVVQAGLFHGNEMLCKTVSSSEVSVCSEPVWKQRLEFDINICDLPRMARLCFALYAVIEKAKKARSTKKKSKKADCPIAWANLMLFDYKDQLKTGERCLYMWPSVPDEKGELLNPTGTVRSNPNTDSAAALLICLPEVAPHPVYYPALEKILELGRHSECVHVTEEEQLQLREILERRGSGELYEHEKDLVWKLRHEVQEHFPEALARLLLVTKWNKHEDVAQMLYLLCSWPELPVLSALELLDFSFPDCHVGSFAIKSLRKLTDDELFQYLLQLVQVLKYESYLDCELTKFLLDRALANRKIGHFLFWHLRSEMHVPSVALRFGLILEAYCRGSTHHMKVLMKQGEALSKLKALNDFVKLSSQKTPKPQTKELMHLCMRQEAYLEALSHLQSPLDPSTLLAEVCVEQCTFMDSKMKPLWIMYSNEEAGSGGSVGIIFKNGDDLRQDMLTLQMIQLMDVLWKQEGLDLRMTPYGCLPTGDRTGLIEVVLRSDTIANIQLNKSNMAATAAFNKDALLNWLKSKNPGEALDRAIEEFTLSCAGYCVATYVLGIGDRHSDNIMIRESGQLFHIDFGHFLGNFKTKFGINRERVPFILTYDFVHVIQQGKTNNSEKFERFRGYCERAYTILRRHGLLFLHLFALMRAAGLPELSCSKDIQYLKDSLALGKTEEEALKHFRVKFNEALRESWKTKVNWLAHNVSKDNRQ
Description: Inhibition of PI3Kdelta (unknown origin) using biotin-PIP3 as substrate preincubated for 15 mins followed by substrate addition and measured after 60 mins by fluorescence polarization assay

Series [4] concerns the target Phosphatidylinositol 4,5-bisphosphate 3-kinase catalytic subunit gamma isoform (Homo sapiens, UniProt P48736).
Description: Inhibition of PI3Kgamma (unknown origin) using biotin-PIP3 as substrate preincubated for 15 mins followed by substrate addition and measured after 60 mins by fluorescence polarization assay
For series [5], the target named is Phosphatidylinositol 4,5-bisphosphate 3-kinase catalytic subunit alpha isoform (Homo sapiens, UniProt P42336).
Description: Inhibition of PI3Kalpha (unknown origin) using biotin-PIP3 as substrate preincubated for 15 mins followed by substrate addition and measured after 60 mins by fluorescence polarization assay
The next series concerns the target Albumin (Homo sapiens, UniProt P02768). In words: Binding affinity to human serum albumin by HPLC analysis. As to conditions: isolated protein. It counts as ADME.
For series [6], the target named is Phosphatidylinositol 4,5-bisphosphate 3-kinase catalytic subunit beta isoform (Homo sapiens, UniProt P42338). In words: Inhibition of PI3Kbeta (unknown origin) using biotin-PIP3 as substrate preincubated for 15 mins followed by substrate addition and measured after 60 mins by fluorescence polarization assay.
Sequence of Phosphatidylinositol 4,5-bisphosphate 3-kinase catalytic subunit beta isoform (P42338 whole entry, canonical isoform): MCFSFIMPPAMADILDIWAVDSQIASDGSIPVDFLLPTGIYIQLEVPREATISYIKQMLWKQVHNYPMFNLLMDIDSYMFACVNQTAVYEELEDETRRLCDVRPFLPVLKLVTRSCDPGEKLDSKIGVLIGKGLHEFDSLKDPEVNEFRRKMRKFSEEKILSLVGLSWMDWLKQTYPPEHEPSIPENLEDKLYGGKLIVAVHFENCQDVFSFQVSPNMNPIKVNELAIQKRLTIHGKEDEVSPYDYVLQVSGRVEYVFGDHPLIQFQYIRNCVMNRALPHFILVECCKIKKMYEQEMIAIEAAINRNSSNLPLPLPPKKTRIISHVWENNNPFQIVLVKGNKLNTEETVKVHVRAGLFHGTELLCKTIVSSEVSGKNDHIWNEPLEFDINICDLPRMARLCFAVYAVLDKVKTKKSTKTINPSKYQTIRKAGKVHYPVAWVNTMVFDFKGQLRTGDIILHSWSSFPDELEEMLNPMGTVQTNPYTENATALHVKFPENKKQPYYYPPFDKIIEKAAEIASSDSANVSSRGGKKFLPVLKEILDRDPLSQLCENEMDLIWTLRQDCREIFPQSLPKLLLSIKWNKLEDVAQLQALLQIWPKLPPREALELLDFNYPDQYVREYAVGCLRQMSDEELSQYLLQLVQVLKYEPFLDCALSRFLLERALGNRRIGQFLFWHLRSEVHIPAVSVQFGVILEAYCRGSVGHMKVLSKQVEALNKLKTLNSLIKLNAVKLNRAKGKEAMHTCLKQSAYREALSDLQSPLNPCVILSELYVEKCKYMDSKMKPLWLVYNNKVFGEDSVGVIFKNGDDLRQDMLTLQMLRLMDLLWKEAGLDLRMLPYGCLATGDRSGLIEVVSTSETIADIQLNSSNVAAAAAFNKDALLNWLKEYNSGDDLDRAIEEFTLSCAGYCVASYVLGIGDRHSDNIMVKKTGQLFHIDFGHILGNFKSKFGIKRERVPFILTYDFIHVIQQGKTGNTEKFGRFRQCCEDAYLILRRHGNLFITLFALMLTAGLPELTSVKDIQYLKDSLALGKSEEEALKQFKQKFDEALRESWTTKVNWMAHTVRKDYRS

Sequence of Albumin (P02768 whole entry, canonical isoform): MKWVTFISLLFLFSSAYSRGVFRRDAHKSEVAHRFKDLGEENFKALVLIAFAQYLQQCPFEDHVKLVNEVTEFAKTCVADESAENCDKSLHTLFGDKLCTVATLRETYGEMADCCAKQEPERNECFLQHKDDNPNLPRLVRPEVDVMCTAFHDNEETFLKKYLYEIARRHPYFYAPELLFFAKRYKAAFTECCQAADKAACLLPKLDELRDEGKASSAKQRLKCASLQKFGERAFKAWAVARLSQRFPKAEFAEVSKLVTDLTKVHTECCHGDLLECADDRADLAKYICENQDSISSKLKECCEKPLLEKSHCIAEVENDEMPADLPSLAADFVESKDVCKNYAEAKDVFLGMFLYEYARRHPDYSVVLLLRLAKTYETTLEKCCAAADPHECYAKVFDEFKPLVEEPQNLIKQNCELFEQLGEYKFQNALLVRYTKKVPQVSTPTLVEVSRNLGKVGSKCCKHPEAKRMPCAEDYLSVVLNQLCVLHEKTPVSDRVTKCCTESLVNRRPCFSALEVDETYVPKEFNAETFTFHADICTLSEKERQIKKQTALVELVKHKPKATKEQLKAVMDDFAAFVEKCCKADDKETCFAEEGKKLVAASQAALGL
Sequence of Phosphatidylinositol 4,5-bisphosphate 3-kinase catalytic subunit gamma isoform (P48736 whole entry, canonical isoform): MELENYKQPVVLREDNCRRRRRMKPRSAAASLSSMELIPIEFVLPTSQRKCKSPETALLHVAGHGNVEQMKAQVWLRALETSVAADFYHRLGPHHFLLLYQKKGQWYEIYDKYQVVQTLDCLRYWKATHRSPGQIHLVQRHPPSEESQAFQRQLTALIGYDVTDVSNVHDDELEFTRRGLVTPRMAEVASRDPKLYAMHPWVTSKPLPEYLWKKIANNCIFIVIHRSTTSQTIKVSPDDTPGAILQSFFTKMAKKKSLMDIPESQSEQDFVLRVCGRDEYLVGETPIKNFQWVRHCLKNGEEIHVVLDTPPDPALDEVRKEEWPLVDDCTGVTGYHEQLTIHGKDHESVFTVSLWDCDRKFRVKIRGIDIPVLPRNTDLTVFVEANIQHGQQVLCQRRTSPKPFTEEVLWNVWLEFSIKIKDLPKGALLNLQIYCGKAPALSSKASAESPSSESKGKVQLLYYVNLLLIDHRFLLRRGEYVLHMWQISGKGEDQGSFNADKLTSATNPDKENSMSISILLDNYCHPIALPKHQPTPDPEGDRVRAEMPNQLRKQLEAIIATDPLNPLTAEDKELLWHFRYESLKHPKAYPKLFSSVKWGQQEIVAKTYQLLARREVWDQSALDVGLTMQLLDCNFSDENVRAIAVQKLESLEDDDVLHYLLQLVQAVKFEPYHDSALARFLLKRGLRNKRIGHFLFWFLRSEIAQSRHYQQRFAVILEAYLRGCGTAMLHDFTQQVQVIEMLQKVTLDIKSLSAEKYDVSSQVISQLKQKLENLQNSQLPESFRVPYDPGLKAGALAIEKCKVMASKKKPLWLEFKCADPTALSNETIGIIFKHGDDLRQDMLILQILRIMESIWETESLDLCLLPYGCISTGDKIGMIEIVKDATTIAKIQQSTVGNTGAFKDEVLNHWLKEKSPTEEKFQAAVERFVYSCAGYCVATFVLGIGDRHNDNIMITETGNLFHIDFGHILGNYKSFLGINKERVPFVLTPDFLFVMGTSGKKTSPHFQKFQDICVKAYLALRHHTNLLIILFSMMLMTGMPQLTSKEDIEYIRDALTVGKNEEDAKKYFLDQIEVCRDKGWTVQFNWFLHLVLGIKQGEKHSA
Sequence of Phosphatidylinositol 4,5-bisphosphate 3-kinase catalytic subunit alpha isoform (P42336 whole entry, canonical isoform): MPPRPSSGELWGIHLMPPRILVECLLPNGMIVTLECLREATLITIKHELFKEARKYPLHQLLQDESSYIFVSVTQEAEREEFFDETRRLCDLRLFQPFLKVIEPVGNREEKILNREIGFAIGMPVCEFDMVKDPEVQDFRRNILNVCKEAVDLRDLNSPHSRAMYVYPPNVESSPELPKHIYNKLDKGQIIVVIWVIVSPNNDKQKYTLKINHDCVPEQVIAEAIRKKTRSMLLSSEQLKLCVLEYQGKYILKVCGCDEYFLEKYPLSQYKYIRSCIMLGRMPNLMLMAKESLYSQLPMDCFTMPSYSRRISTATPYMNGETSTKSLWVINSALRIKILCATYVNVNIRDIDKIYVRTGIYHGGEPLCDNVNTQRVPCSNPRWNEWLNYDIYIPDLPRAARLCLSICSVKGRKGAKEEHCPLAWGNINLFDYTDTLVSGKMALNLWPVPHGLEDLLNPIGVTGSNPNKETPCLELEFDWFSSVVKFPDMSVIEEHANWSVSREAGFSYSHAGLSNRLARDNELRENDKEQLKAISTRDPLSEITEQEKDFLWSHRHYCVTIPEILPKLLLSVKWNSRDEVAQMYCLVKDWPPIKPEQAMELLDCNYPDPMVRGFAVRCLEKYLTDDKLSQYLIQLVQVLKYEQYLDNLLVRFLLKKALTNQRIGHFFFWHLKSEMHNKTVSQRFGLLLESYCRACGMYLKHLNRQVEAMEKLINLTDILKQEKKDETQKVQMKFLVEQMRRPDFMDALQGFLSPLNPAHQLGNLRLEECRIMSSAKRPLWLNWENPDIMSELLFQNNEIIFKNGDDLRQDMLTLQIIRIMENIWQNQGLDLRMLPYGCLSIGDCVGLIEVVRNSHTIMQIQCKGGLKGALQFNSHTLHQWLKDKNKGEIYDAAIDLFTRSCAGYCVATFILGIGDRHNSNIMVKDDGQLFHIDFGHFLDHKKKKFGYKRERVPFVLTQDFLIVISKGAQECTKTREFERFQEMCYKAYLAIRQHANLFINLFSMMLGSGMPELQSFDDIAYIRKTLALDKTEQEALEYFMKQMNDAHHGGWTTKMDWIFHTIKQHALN

Consider `COCC(=O)N(C)C1CCN(Cc2cc3nc(-c4cnc(N)nc4)nc(N4CCOCC4)c3s2)C1` (racemic), for which the pH-dependent lipophilicity (logD) in series [1] was determined as 2.7. Besides, the solubility (kinetic) in series [2] was at least 2720 µM. Moreover, the IC50 in series [3] is 6.31 nM; in series [4], 7.94 nM; in series [5], 15.8 nM; in series [6], 251 nM. The Activity on Albumin was 81.2%.

A word on the logD: it is the decadic logarithm of the distribution of all forms, ionised or not, between an organic phase and buffer at a given pH. A lower logD goes with lower lipophilicity. As usually defined, the kinetic solubility is the concentration staying in solution when a stock, usually in DMSO, is diluted into the medium. A word on the IC50: it is the point on the concentration scale where inhibition reaches its midpoint.
